This is an account of results in patent US8754226B2, “Piperidinyl-substituted lactams as GPR119 modulators” (Array BioPharma Inc., priority 2010, dated 2014).

In the assay the test system is modified version of the GPR119 receptor (94% identity to human receptor). Kind of assay: cAMP production assay (LANCE cAMP kit, TR-FRET) in HEK-293 cells. Format: cell-based. The note with it: for cAMP production in HEK-293 cells: HEK-293 cells stably expressing modified GPR119, test compounds 0.2 nM to 10 μM, one-hour incubation at ambient temperature; for Fold over baseline: increase in cAMP relative to basal levels, agonist activity if 1.5-fold or greater. In a few lines:
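Doxycycline-induced (1 μg/mL, overnight) HEK-293 cells expressing modified GPR119 were thawed, 2000 cells/well, and exposed to compounds (0.2 nM-10 μM final, 0.5% DMSO) for 1 h at ambient temperature in HBSS/HEPES/BSA. cAMP was measured by LANCE TR-FRET against a standard curve. Agonism was defined as ≥1.5-fold over basal.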
For orientation: cAMP levels reflect the balance of adenylyl cyclase and phosphodiesterase activity.

For the compound `CCc1cnc(N2CCC(N3CC[C@H](Oc4ccc(-n5nnnc5C)cc4)C3=O)CC2)nc1` [Example 70, (S)-1-(1-(5-ethylpyrimidin-2-yl)piperidin-4-yl)-3-(4-(5-methyl-1H-tetrazol-1-yl)phenoxy)pyrrolidin-2-one], the “cAMP production in HEK-293 cells” value is 6.1 nmol and the Fold over baseline is 1.8.
For `Cc1nnc(-c2ccc(O[C@H]3CCN(C4CCN(c5cnc(Cl)cn5)CC4)C3=O)c(F)c2)o1` [Example 71, (S)-1-(1-(5-chloropyrazin-2-yl)piperidin-4-yl)-3-(2-fluoro-4-(5-methyl-1,3,4-oxadiazol-2-yl)phenoxy)pyrrolidin-2-one], in that order: 17.6 nmol and 5.6.
For `Cc1nnc(-c2ccc(O[C@H]3CCN(C4CCN(c5ncc(Cl)cn5)CC4)C3=O)c(F)c2)o1` [Example 72, (S)-1-(1-(5-chloropyrimidin-2-yl)piperidin-4-yl)-3-(2-fluoro-4-(5-methyl-1,3,4-oxadiazol-2-yl)Phenoxy)pyrrolidin-2-one], in that order: 7.5 nmol and 2.8.
`CCc1cnc(N2CCC(N3CCC[C@H](Nc4cc5c(cc4F)S(=O)(=O)CC5)C3=O)CC2)nc1` [Example 73, (S)-1′-(5-ethylpyrimidin-2-yl)-3-((6-fluoro-1,1-dioxido-2,3-dihydrobenzo[b]thiophen-5-yl)amino)-[1,4′-bipiperidin]-2-one]: the “cAMP production in HEK-293 cells” value came to 14.4 nmol and the Fold over baseline is reported as 3.0.
The corresponding values for `O=C1[C@@H](Oc2ccc3[nH]ncc3c2)CCN1C1CCN(c2cnc(Cl)cn2)CC1` [Example 74, (S)-3-(1H-indazol-5-yloxy)-1-(1-(5-chloropyrazin-2-yl)piperidin-4-yl)pyrrolidin-2-one] are 8.6 nmol and 2.2.
The corresponding values for `O=C1[C@@H](Nc2ncc(C(F)(F)F)cc2Cl)CCCN1C1CCN(c2cnc(Cl)cn2)CC1` [Example 75, (S)-3-(3-chloro-5-(trifluoromethyl)pyridin-2-ylamino)-1′-(5-chloropyrazin-2-yl)-[1,4′-bipiperidin]-2-one] are 9.1 nmol and 2.5.
Consider `CCc1cnc(N2CCC(N3CCC[C@H](Nc4ncc(C(F)(F)F)cc4Cl)C3=O)CC2)nc1` [Example 76, (S)-3-(3-chloro-5-(trifluoromethyl)pyridin-2-ylamino)-1′-(5-ethylpyrimidin-2-yl)-[1,4′-bipiperidin]-2-one], for which the “cAMP production in HEK-293 cells” value was 5.9 nmol and the Fold over baseline is listed as 1.9.
Consider `CCc1cnc(N2CCC(N3CCCC(Nc4ccc(S(C)(=O)=O)cc4F)C3=O)CC2)c(C)c1` (centres unmarked) [Example 77, 1′-(5-ethyl-3-methylpyridin-2-yl)-3-(2-fluoro-4-(methylsulfonyl)phenylamino)-[1,4′-bipiperidin]-2-one], for which the “cAMP production in HEK-293 cells” value stood at 21.3 nmol and the Fold over baseline amounted to 2.5.
As for `CCc1cnc(N2CCC(N3CCC[C@H](N(C)c4cc(F)c(S(C)(=O)=O)cc4F)C3=O)CC2)nc1` [Example 78, (S)-3-((2,5-difluoro-4-(methylsulfonyl)phenyl)(methyl)amino)-1′-(5-ethylpyrimidin-2-yl)-[1,4′-bipiperidin]-2-one], the “cAMP production in HEK-293 cells” value was 13.6 nmol and the Fold over baseline is recorded as 3.4.
For `CCc1cnc(N2CCC(N3CCCC[C@H](Nc4ccc(S(C)(=O)=O)cc4F)C3=O)CC2)nc1.Cl` [Example 79], in that order: 18.0 nmol and 3.8.
For `CS(=O)(=O)c1ccc(N[C@H]2CCCCN(C3CCN(c4cnc(Cl)cn4)CC3)C2=O)c(F)c1.Cl` [Example 80, (S)-1-(1-(5-chloropyrazin-2-yl)piperidin-4-yl)-3-(2-fluoro-4-(methylsulfonyl)phenylamino)azepan-2-one hydrochloride], in that order: 18.3 nmol and 3.7.
Regarding `CS(=O)(=O)c1cc(F)c(N[C@H]2CCCCN(C3CCN(c4cnc(Cl)cn4)CC3)C2=O)cc1F.Cl` [Example 81, (S)-1-(1-(5-chloropyrazin-2-yl)piperidin-4-yl)-3-(2,5-difluoro-4-(methylsulfonyl)phenylamino)azepan-2-one hydrochloride], the “cAMP production in HEK-293 cells” value was found to be 22.7 nmol and the Fold over baseline was found to be 5.0.
The corresponding values for `CCc1cnc(N2CCC(N3CCCC[C@H](Nc4cc(F)c(S(C)(=O)=O)cc4F)C3=O)CC2)nc1.Cl` [Example 82, (S)-3-(2,5-difluoro-4-(methylsulfonyl)phenylamino)-1-(1-(5-ethylpyrimidin-2-yl)piperidin-4-yl)azepan-2-one hydrochloride] are 18.5 nmol and 4.0.
For `CS(=O)(=O)c1cc(F)c(N[C@H]2CCCCN(C3CCN(c4cnccn4)CC3)C2=O)cc1F.Cl` [Example 83, (S)-3-(2,5-difluoro-4-(methylsulfonyl)phenylamino)-1-(1-(pyrazin-2-yl)piperidin-4-yl)azepan-2-one hydrochloride], in that order: 13.0 nmol and 2.9.
The corresponding values for `CS(=O)(=O)c1cc(F)c(N[C@H]2CCCCN(C3CCN(c4cncc(Cl)n4)CC3)C2=O)cc1F.Cl` [Example 84, (S)-1-(1-(6-chloropyrazin-2-yl)piperidin-4-yl)-3-(2,5-difluoro-4-(methylsulfonyl)phenylamino)azepan-2-one hydrochloride] are 6.3 nmol and 1.8.
For `CS(=O)(=O)c1cc(F)c(N[C@H]2CCCCN(C3CCN(c4nccnc4C#N)CC3)C2=O)cc1F.Cl` [Example 85, (S)-3-(4-(3-(2,5-difluoro-4-(methylsulfonyl)phenylamino)-2-oxoazepan-1-yl)piperidin-1-yl)pyrazine-2-carbonitrile hydrochloride], the “cAMP production in HEK-293 cells” value is 6.5 nmol and the Fold over baseline was 1.9.
As for `CC(C)c1cnc(N2CCC(N3CCC(Oc4cc(F)c(S(C)(=O)=O)cc4F)C3=O)CC2)nc1` (centres unmarked) [Example 86, 3-(2,5-difluoro-4-(methylsulfonyl)phenoxy)-1-(1-(5-isopropylpyrimidin-2-yl)piperidin-4-yl)pyrrolidin-2-one], the “cAMP production in HEK-293 cells” value was 5.9 nmol and the Fold over baseline stood at 1.9.
For `CCc1cnc(N2CCC(N3CCC(Oc4cc(F)c(S(C)(=O)=O)cc4F)C3=O)CC2)nc1` (centres unmarked) [Example 87, 3-(2,5-difluoro-4-(methylsulfonyl)phenoxy)-1-(1-(5-ethylpyrimidin-2-yl)piperidin-4-yl)pyrrolidin-2-one trifluoroactetate], in that order: 5.5 nmol and 1.8.
The corresponding values for `CS(=O)(=O)c1cc(F)c(OC2CCN(C3CCN(c4ncc(-c5ccccc5)cn4)CC3)C2=O)cc1F` (centres unmarked) [Example 88, 3-(2,5-difluoro-4-(methylsulfonyl)phenoxy)-1-(1-(5-phenylpyrimidin-2-yl)piperidin-4-yl)pyrrolidin-2-one trifluoroactetate] are 9.1 nmol and 2.4.
Consider `CCc1cnc(N2CCC(N3CC[C@H](Nc4ccc(S(C)(=O)=O)cc4F)C3=O)CC2)cn1` [Example 89, (S)-1-(1-(5-ethylpyrazin-2-yl)piperidin-4-yl)-3-(2-fluoro-4-(methylsulfonyl)phenyl-amino)pyrrolidin-2-one trifluoroactetate], for which the “cAMP production in HEK-293 cells” value was determined as 23.1 nmol and the Fold over baseline is 4.8.
The corresponding values for `CS(=O)(=O)c1cc(F)c(O[C@H]2CCN(C3CCN(c4ncc(Br)cn4)CC3)C2=O)cc1F` [Example 90, (S)-1-(1-(5-bromopyrimidin-2-yl)piperidin-4-yl)-3-(2,5-difluoro-4-(methylsulfonyl)phenoxy)pyrrolidin-2-one] are 11.7 nmol and 2.7.
For `CS(=O)(=O)c1ccc(O[C@H]2CCN(C3CCN(c4cnc(Cl)cn4)CC3)C2=O)c(F)c1` [Example 91, (S)-1-(1-(5-chloropyrazin-2-yl)piperidin-4-yl)-3-(2-fluoro-4-(methylsulfonyl)phenoxy)pyrrolidin-2-one], in that order: 38.0 nmol and 3.9.
For `CS(=O)(=O)c1cc(F)c(O[C@H]2CCN(C3CCN(c4ncc(-c5ccccc5)cn4)CC3)C2=O)cc1F` [Example 92, S-3-(2,5-difluoro-4-(methylsulfonyl)phenoxy)-1-(1-(5-phenylpyrimidin-2-yl)piperidin-4-yl)pyrrolidin-2-one], in that order: 16.6 nmol and 3.0.
Turning to `Cc1ccccc1-c1cnc(N2CCC(N3CC[C@H](Oc4cc(F)c(S(C)(=O)=O)cc4F)C3=O)CC2)nc1` [Example 93, (S)-3-(2,5-difluoro-4-(methylsulfonyl)phenoxy)-1-(1-(5-o-tolylpyrimidin-2-yl)piperidin-4-yl)pyrrolidin-2-one], the “cAMP production in HEK-293 cells” value is 11.1 nmol and the Fold over baseline was found to be 2.2.
Turning to `CS(=O)(=O)c1cc(F)c(O[C@H]2CCN(C3CCN(c4ncc(-c5ccccn5)cn4)CC3)C2=O)cc1F` [Example 94, (S)-3-(2,5-difluoro-4-(methylsulfonyl)phenoxy)-1-(1-(5-(pyridin-2-yl)pyrimidin-2-yl)piperidin-4-yl)pyrrolidin-2-one], the “cAMP production in HEK-293 cells” value is 6.9 nmol and the Fold over baseline stood at 2.0.
